Measured values reported in patent US11110082B2, “Tyrosine kinase inhibitors” (Rigel Pharmaceuticals, Inc., priority 2016, dated 2021).

What follows are compounds tested against T1, MerTK (Homo sapiens, UniProt Q12866) (assay: PAKT HTRF-HUVEC assay (pAkt Ser473 HTRF after anti-human MerTK-XL stimulation)). Settings: HUVEC cells, 1 hour compound, stimulated with anti-human MerTK-XL 1 ug/mL for 10 minutes, read-out: inhibition of MerTK.
T1 construct: Seed HUVECs (10K cells/well) in EBM-2 complete media; host or cells: HUVEC (primary human umbilical vein endothelial cells)
T1 sequence (Q12866 21-999): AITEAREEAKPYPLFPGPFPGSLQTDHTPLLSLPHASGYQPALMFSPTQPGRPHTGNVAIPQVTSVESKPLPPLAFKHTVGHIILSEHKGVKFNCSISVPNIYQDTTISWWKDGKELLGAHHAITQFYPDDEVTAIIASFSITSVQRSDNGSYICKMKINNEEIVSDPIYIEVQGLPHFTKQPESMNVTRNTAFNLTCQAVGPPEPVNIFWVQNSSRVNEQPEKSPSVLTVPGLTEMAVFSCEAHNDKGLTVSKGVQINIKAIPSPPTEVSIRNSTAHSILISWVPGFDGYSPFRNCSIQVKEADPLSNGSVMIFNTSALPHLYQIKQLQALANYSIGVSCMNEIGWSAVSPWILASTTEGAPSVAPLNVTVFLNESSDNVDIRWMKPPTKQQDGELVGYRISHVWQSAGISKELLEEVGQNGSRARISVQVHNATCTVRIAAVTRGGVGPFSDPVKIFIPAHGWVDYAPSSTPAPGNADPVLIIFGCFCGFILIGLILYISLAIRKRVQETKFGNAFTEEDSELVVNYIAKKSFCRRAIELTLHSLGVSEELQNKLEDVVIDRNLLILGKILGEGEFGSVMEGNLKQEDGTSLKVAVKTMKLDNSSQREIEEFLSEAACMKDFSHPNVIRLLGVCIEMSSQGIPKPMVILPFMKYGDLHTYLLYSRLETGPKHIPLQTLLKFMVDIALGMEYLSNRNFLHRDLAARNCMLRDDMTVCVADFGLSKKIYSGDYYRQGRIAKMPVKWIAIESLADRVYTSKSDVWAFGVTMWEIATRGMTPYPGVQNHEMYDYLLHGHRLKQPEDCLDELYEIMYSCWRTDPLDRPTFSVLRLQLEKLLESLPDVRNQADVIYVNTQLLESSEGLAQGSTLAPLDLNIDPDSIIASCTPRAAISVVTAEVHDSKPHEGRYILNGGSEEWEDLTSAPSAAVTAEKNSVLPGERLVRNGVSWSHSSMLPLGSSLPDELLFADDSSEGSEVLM
Format: cell-based
Protocol: Example 4: PAKT HTRF-HUVEC Assay Phospho Akt (Ser473) Assay kit-10,000 tests (Cisbio US, 64[…]) HUVEC cells (Lonza, CC-2519) Anti-human MerTK antibody (Clone 125518) (R&D Systems, MAB8912) Method Seed HUVECs (10K cells/well) in EBM-2 complete media (EBM-2 basal medium plus EGM-2 BulletKit supplements) overnight at 37° C., 5% CO2 in Costar 96-well white clear-bottom plates. Remove culture media and starve cells for 3-4 hours in 50 μL/well EBM-2 basal medium. Perform serial dilution of compounds in DMSO from 2.5 mM in 4-fold dilutions, and then dilute 1:125 in EBM-2 basal media. Mix 50 μL/well 2x compounds with 50 μL/well HUVECs in duplicate in Costar 96-well white clear-bottom plates. Incubate plates for 1 hour at 37° C., 5% CO2. Cross-link anti-human MerTK antibody to Biotin-SP-conjugated anti-mouse IgG antibody (1:1) to give final concentrations of 5 ug/mL of anti-human MerTK-XL. Stimulate HUVECs with 25 μL/well 5x anti-human MerTK-XL to give final concentrations of 1 ug/mL for 10 minutes at 37° C., 5% CO2. Completely remove media and lyse HUVECs with 40 uL/WELL per well of Cisbio HTRF 1× lysis buffer. Performed pAkt(Ser473) HTRF assay in ProxiPlate-384 Plus, white 384-shallow well microplate according to the vendor protocol and read plates with a SpectralMax Paradigm plate reader. Enter the HTRF values into Athena (Rigel) for curve fitting, EC50 calculation, and database storage.

First: O=c1c2cc(CN3CC[S+]([O-])CC3)ccc2c2cnc(NCC3CC3)nc2n1[C@H]1CC[C@H](O)CC1 [Compound 52, trans-3-((cyclopropylmethyl)amino)-5-(4-hydroxycyclohexyl)-8-((1-oxidothiomorpholino)methyl) pyrimido[4,5-c]isoquinolin-6(5H)-one]
Second: O=c1c2cc(CN3CCSCC3)ccc2c2cnc(NCC3CC3)nc2n1[C@H]1CC[C@H](O)CC1 [Compound 53, trans-3-((Cyclopropylmethyl)amino)-5-(4-hydroxycyclohexyl)-8-(thiomorpholinomethyl)pyrimido [4,5-c]isoquinolin-6(5H)-one]
The EC50 of the first is 11-fold higher: 401 nM for the first, 36.3 nM for the second.

First: O=c1c2cc(CN3CCNCC3)ccc2c2cnc(NCC3CC3)nc2n1[C@H]1CC[C@H](O)CC1 [Compound 54, trans-3-((Cyclopropylmethyl)amino)-5-(4-hydroxycyclohexyl)-8-(piperazin-1-ylmethyl)pyrimido[4,5-c]isoquinolin-6(5H)-one]
Second: CC(C)(C)N1CCN(Cc2ccc3c(c2)c(=O)n([C@H]2CC[C@H](O)CC2)c2nc(NCC4CC4)ncc32)CC1 [Compound 60, trans-8-((4-(tert-butyl)piperazin-1-yl)methyl)-3-((cyclopropylmethyl)amino)-5-(4-hydroxycyclohexyl)pyrimido [4,5-c]isoquinolin-6(5H)-one]
The EC50 of the first is 74-fold higher: 309 nM for the first, 4.2 nM for the second. The second is the more potent here.

Going from CC(C)CNc1ncc2c3ccc(CN4CCN(C)CC4)cc3c(=O)n([C@H]3CC[C@H](O)CC3)c2n1 [Compound 56, trans-5-(4-Hydroxycyclohexyl)-3-(isobutylamino)-8-((4-methylpiperazin-1-yl)methyl)pyrimido[4,5-c]isoquinolin-6(5H)-one] to CCCCNc1ncc2c3ccc(N4CCN(C)CC4)cc3c(=O)n([C@H]3CC[C@H](O)CC3)c2n1 [Compound 61, trans-3-(Butylamino)-5-(4-hydroxycyclohexyl)-8-(4-methylpiperazin-1-yl)pyrimido[4,5-c]isoquinolin-6(5H)-one], the EC50 falls from 51.2 nM to 23.1 nM (2.2-fold). The second is the more potent here.

Going from O=c1c2cc(CN3CCN4CCC3CC4)ccc2c2cnc(NCC3CC3)nc2n1[C@H]1CC[C@H](O)CC1 [Compound 58, trans-8-((1,4-Diazabicyclo[3.2.2]nonan-4-yl)methyl)-3-((cyclopropylmethyl)amino)-5-(4-hydroxycyclohexyl)pyrimido [4,5-c]isoquinolin-6(5H)-one] to CN1CCN(Cc2ccc3c(c2)c(=O)n([C@H]2CC[C@H](OC(N)=O)CC2)c2nc(NCC4CC4)ncc32)CC1 [Compound 59, trans-4-(3-((Cyclopropylmethyl)amino)-8-((4-methylpiperazin-1-yl)methyl)-6-oxopyrimido[4,5-c]isoquinolin-5(6H)-yl)cyclohexyl carbamate], the EC50 rises from 115 nM to 292 nM (2.5-fold). The first is the more potent here.

CCCCNc1ncc2c3ccc(N4CCOCC4)cc3c(=O)n([C@H]3CC[C@H](O)CC3)c2n1 [Compound 62, trans-3-(Butylamino)-5-(4-hydroxycyclohexyl)-8-morpholinopyrimido[4,5-c]isoquinolin-6(5H)-one] and CCCCNc1ncc2c3ccc(N4CCN(C)CC4)cc3c(=O)n([C@H]3CC[C@@H](O)CC3)c2n1 [Compound 63, cis-3-(Butylamino)-5-(4-hydroxycyclohexyl)-8-(4-methylpiperazin-1-yl)pyrimido[4,5-c]isoquinolin-6(5H)-one] are within 1.5-fold of each other in EC50: 95.2 nM for the first, 138 nM for the second.

Compared with CCCCNc1ncc2c3ccc(N4CCN(C)CC4)cc3c(=O)n(CC3CCC(N)CC3)c2n1 (stereo not shown) [Compound 65, 5-((4-Aminocyclohexyl)methyl)-3-(butylamino)-8-(4-methylpiperazin-1-yl)pyrimido[4,5-c]isoquinolin-6(5H)-one], CCCCNc1ncc2c3ccc(N4CCN(C(C)C)CC4)cc3c(=O)n([C@H]3CC[C@H](O)CC3)c2n1 [Compound 69, trans-3-(Butylamino)-5-(4-hydroxycyclohexyl)-8-(4-isopropylpiperazin-1-yl)pyrimido[4,5-c]isoquinolin-6(5H)-one] is 3.8-fold lower in EC50: 78.3 nM for the first, 20.4 nM for the second.

Compared with CN1CC2(C1)CN(c1ccc3c(c1)c(=O)n([C@H]1CC[C@H](O)CC1)c1nc(NC4CC(F)(F)C4)ncc31)C2 [Compound 66, trans-3-((3,3-Difluorocyclobutyl)amino)-5-(4-hydroxycyclohexyl)-8-(6-methyl-2,6-diazaspiro[3.3]heptan-2-yl)pyrimido[4,5-c]isoquinolin-6(5H)-one], O=c1c2cc(N3CC4(COC4)C3)ccc2c2cnc(NC3CC(F)(F)C3)nc2n1[C@H]1CC[C@H](O)CC1 [Compound 67, trans-3-((3,3-difluorocyclobutyl)amino)-5-(4-hydroxycyclohexyl)-8-(2-oxa-6-azaspiro[3.3]heptan-6-yl)pyrimido[4,5-c]isoquinolin-6(5H)-one] is 27-fold higher in EC50: 298 nM for the first, 8030 nM for the second.

Going from CCCCNc1ncc2c3ccc(N4CC5(COC5)C4)cc3c(=O)n([C@H]3CC[C@H](O)CC3)c2n1 [Compound 68, trans-3-(Butylamino)-5-(4-hydroxycyclohexyl)-8-(2-oxa-6-azaspiro[3.3]heptan-6-yl)pyrimido[4,5-c]isoquinolin-6(5H)-one] to O=c1c2cc(N3CC4(COC4)C3)ccc2c2cnc(NC3CC(F)C3)nc2n1[C@H]1CC[C@H](O)CC1 (stereo partly drawn) [Compound 75, trans-3-((3-Fluorocyclobutyl)amino)-5-(4-hydroxycyclohexyl)-8-(2-oxa-6-azaspiro[3.3]heptan-6-yl)pyrimido[4,5-c]isoquinolin-6(5H)-one], the EC50 rises from 78.4 nM to 1080 nM (14-fold).

CCCCNc1ncc2c3ccc(N4CCN(C(C)C)CC4)cc3c(=O)n(C3CCC(=O)CC3)c2n1 [Compound 70, 3-(Butylamino)-8-(4-isopropylpiperazin-1-yl)-5-(4-oxocyclohexyl)pyrimido[4,5-c]isoquinolin-6(5H)-one] and CCCCNc1ncc2c3ccc(N4CCC(N5CCCC5)CC4)cc3c(=O)n(C3CCC(=O)CC3)c2n1 [Compound 72, 3-(Butylamino)-5-(4-oxocyclohexyl)-8-(4-(pyrrolidin-1-yl)piperidin-1-yl)pyrimido[4,5-c]isoquinolin-6(5H)-one] are within 1.5-fold of each other in EC50: 184 nM for the first, 220 nM for the second.

Going from CCCCNc1ncc2c3ccc(N4CCC(N5CCCC5)CC4)cc3c(=O)n([C@H]3CC[C@H](O)CC3)c2n1 [Compound 71, trans-3-(Butylamino)-5-(4-hydroxycyclohexyl)-8-(4-(pyrrolidin-1-yl)piperidin-1-yl)pyrimido[4,5-c]isoquinolin-6(5H)-one] to CCCCNc1ncc2c3ccc(N4CCN5CCC[C@H]5C4)cc3c(=O)n([C@H]3CC[C@H](O)CC3)c2n1 [Compound 73, trans-3-(Butylamino)-8-((S)-hexahydropyrrolo[1,2-a]pyrazin-2(1H)-yl)-5-((1r,4S)-4-hydroxycyclohexyl)pyrimido [4,5-c]isoquinolin-6(5H)-one], the EC50 falls from 33.4 nM to 21 nM (1.6-fold). The second is the more potent here.

Compared with CN1CC2(C1)CN(c1ccc3c(c1)c(=O)n([C@H]1CC[C@H](O)CC1)c1nc(NC4CC(F)C4)ncc31)C2 (stereo partly drawn) [Compound 74, trans-3-((3-Fluorocyclobutyl)amino)-5-(4-hydroxycyclohexyl)-8-(6-methyl-2,6-diazaspiro[3.3]heptan-2-yl)pyrimido[4,5-c]isoquinolin-6(5H)-one], CCCCNc1ncc2c3ccc(N4CCN5CCC[C@@H]5C4)cc3c(=O)n([C@H]3CC[C@H](O)CC3)c2n1 [Compound 76, trans-3-(Butylamino)-8-((R)-hexahydropyrrolo[1,2-a]pyrazin-2(1H)-yl)-5-(4-hydroxycyclohexyl)pyrimido [4,5-c]isoquinolin-6(5H)-one] is 19-fold lower in EC50: 218 nM for the first, 11.5 nM for the second.
